The structures appear in SMILES notation.

For orientation: Emax means the greatest response seen or fitted, relative to the assay's reference. For orientation: EC50 means the concentration needed to bring the measured effect to its halfway point. As usually defined, the Ki is a dissociation constant, usually derived from enzyme kinetics or from competition with a known ligand.

The target in experiment [1] is T1, Cannabinoid receptor 2 (Homo sapiens, UniProt P34972). The experiment can be described thus: Agonist activity at recombinant human Cb2 receptor expressed in HEK293 cells assessed as inhibition of forskolin-stimulated cAMP levels relative to CP-55940. It counts as functional, cell-based. For orientation: Cyclic AMP is a second messenger, typically raised through Gs and lowered through Gi signalling.

The target of experiment [2] is T2, Cannabinoid receptor 1 (Rattus norvegicus, UniProt P20272). The experiment is described as follows: Agonist activity at recombinant rat Cb1 receptor expressed in HEK293 cells assessed as inhibition of forskolin-stimulated cAMP levels. It counts as functional, cell-based.
Experiment [3] concerns the target Cannabinoid receptor 2 (Mus musculus, UniProt P47936). The experiment is described as follows: Displacement of [3H]CP-55,940 from recombinant mouse Cb2 receptor expressed in HEK293 cells. It counts as cell-based. (In general: Loss of bound radioactivity is the signal in a displacement assay; it reports binding, not function.)
Experiment [4] deals with T1, Cannabinoid receptor 2. The experiment is described as follows: Agonist activity at recombinant human Cb2 receptor expressed in HEK293 cells assessed as inhibition of forskolin-stimulated cAMP levels. It counts as functional, cell-based.
The target in experiment [5] is T1, Cannabinoid receptor 2. The experiment is described as follows: Displacement of [3H]CP-55,940 from recombinant human Cb2 receptor expressed in HEK293 cells. It counts as cell-based.
Experiment [6] concerns the target T2, Cannabinoid receptor 1. The experiment can be described thus: Displacement of [3H]CP-55,940 from rat brain Cb1 receptor.
Experiment [7] has as its target Cannabinoid receptor 1 (Rattus norvegicus) (UniProt P20272). The experiment is described as follows: Agonist activity at recombinant rat Cb1 receptor expressed in HEK293 cells assessed as inhibition of forskolin-stimulated cAMP levels relative to control. It counts as functional, cell-based.

T1 sequence (P34972 whole entry): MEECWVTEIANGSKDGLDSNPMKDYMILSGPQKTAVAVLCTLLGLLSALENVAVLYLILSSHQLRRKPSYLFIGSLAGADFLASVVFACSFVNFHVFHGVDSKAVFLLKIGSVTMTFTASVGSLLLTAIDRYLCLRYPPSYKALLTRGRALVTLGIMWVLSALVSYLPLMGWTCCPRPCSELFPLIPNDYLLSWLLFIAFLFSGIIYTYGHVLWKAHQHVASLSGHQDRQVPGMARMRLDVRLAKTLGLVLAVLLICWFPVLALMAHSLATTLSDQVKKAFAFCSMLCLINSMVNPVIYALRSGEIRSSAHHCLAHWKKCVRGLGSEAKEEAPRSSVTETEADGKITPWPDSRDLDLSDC
Sequence of Cannabinoid receptor 1 (Rattus norvegicus) (P20272 whole entry): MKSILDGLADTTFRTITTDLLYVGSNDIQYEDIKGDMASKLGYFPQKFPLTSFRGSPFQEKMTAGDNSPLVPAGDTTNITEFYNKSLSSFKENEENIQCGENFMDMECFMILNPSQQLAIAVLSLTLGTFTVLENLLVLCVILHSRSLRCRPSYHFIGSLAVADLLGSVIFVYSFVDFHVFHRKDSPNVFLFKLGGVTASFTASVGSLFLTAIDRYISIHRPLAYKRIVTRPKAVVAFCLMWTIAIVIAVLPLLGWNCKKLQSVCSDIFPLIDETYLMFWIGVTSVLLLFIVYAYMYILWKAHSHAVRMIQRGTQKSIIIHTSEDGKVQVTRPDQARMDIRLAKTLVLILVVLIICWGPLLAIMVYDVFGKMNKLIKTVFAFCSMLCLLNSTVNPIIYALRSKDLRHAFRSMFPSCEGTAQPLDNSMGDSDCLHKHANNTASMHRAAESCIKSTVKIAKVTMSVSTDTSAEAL
T2 sequence (P20272 whole entry): as above
Sequence of Cannabinoid receptor 2 (Mus musculus, UniProt P47936) (P47936 whole entry): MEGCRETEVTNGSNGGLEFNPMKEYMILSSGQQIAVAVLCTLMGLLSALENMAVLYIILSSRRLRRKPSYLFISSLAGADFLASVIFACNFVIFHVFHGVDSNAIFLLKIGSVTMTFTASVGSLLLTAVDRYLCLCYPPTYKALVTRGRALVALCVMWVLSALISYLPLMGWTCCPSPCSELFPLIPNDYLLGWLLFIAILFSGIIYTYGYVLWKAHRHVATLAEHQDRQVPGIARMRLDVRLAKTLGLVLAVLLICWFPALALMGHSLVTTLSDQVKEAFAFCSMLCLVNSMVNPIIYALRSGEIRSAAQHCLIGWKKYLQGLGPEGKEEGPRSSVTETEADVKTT

Regarding `CC1=CC[C@H]2[C@H](C1)c1c(O)cc(/C(C)=N\OCCCC#N)cc1OC2(C)C`, the Emax at Cannabinoid receptor 2 [1] was determined as 35%. The EC50 result on Cannabinoid receptor 1 [2] (hek293) was “Not Active”; at Cannabinoid receptor 2 [4] (read-out: EC50), 2 nM. Also, the Ki on Cannabinoid receptor 2 [3] is 0.1 nM; at Cannabinoid receptor 2 [5], 0.4 nM; at Cannabinoid receptor 1 [6], 0.3 nM.

Take `CCO/N=C(\C)c1cc(O)c2c(c1)OC(C)(C)[C@H]1CC=C(C)C[C@H]21`: the Ki at Cannabinoid receptor 2 [3] is 74.8 nM; on Cannabinoid receptor 1 [6], 66.1 nM.

Regarding `CC1=CC[C@H]2[C@H](C1)c1c(O)cc(/C(C)=N/OCCCCF)cc1OC2(C)C`, the EC50 is 0.7 nM on Cannabinoid receptor 1 [2] (read-out: EC50) and “Not Active” on Cannabinoid receptor 2 [4] (hek293). Further, the Ki on Cannabinoid receptor 2 [3] is 2.5 nM; on Cannabinoid receptor 2 [5], 9.7 nM; at Cannabinoid receptor 1 [6] it was 4.1 nM. The Emax in experiment [7] is 39%.

Take `CCCCCc1cc(O)c2c(c1)OC(C)(C)[C@H]1CC=C(C)C[C@H]21`: the Ki on Cannabinoid receptor 2 [3] stood at 40.4 nM.

As for `CC1=CC[C@H]2[C@H](C1)c1c(O)cc(/C(C)=N/OCCOc3ccccc3)cc1OC2(C)C`, the figures for the Emax (on Cannabinoid receptor 2 [1]; in experiment [7]) were 99% and 56%, respectively. In addition, the results for the EC50 at Cannabinoid receptor 1 [2] (read-out: EC50) and at Cannabinoid receptor 2 [4] (read-out: EC50) were 0.9 nM and 49.6 nM, respectively. Moreover, the Ki at Cannabinoid receptor 2 [3] was 3.7 nM; at Cannabinoid receptor 2 [5], 6.2 nM; at Cannabinoid receptor 1 [6] it was 11.4 nM.

Turning to `CC1=CC[C@H]2[C@H](C1)c1c(O)cc(/C(C)=N/OCCN3CCOCC3)cc1OC2(C)C`, the Ki on Cannabinoid receptor 2 [3] is 1.8 nM; at Cannabinoid receptor 2 [5], 0.7 nM; on Cannabinoid receptor 1 [6] it was 7 nM.

Regarding `CCCCO/N=C(\C)c1cc(O)c2c(c1)OC(C)(C)[C@H]1CC=C(C)C[C@H]21`, the Emax at Cannabinoid receptor 2 [1] was 116%; in experiment [7], 51%. Also, the EC50 at Cannabinoid receptor 1 [2] (read-out: EC50) was found to be 0.58 nM; at Cannabinoid receptor 2 [4] (read-out: EC50) it was 9.14 nM. Also, the Ki was determined as 1.6 nM at Cannabinoid receptor 2 [3], 16.9 nM at Cannabinoid receptor 2 [5] and 3.4 nM on Cannabinoid receptor 1 [6].

For the compound `CCCCCCC(C)(C)c1ccc([C@@H]2C[C@H](O)CC[C@H]2CCCO)c(O)c1`, the Emax (on Cannabinoid receptor 2 [1]; in experiment [7]) was 70 to 85% each time.

In the case of `CCCC(C)O/N=C(\C)c1cc(O)c2c(c1)OC(C)(C)[C@H]1CC=C(C)C[C@H]21` (mixture of isomers), the Emax was 411% at Cannabinoid receptor 2 [1] and 48% in experiment [7]. The values for the EC50 at Cannabinoid receptor 1 [2] (read-out: EC50) and on Cannabinoid receptor 2 [4] (read-out: EC50) were 22.4 nM and 41.3 nM, respectively. The Ki on Cannabinoid receptor 2 [3] was 43.6 nM; at Cannabinoid receptor 2 [5] it was 24 nM; on Cannabinoid receptor 1 [6], 2 nM.

These data come from ChEMBL document CHEMBL4229545, “Oximes short-acting CB1 receptor agonists” (Bioorg Med Chem, 2018).
